In general, Kd refers to the equilibrium constant for the complex coming apart. Read a high Kd as a looser complex.

We go through 10 molecules from paper PMC12951562, “SH2scan: Mapping SH2 Domain-Ligand Binding Selectivity for Inhibitors and Degraders” (Journal of Medicinal Chemistry, 2026).

Experiment in all cases: biochemical
Type in all cases: binding

One test has as its target T1, VAV1 (Homo sapiens, UniProt P15498).
T1 construct: made in house; host or cells: HEK293 (transient transfection), unpurified extract
T1 sequence (P15498 1-845): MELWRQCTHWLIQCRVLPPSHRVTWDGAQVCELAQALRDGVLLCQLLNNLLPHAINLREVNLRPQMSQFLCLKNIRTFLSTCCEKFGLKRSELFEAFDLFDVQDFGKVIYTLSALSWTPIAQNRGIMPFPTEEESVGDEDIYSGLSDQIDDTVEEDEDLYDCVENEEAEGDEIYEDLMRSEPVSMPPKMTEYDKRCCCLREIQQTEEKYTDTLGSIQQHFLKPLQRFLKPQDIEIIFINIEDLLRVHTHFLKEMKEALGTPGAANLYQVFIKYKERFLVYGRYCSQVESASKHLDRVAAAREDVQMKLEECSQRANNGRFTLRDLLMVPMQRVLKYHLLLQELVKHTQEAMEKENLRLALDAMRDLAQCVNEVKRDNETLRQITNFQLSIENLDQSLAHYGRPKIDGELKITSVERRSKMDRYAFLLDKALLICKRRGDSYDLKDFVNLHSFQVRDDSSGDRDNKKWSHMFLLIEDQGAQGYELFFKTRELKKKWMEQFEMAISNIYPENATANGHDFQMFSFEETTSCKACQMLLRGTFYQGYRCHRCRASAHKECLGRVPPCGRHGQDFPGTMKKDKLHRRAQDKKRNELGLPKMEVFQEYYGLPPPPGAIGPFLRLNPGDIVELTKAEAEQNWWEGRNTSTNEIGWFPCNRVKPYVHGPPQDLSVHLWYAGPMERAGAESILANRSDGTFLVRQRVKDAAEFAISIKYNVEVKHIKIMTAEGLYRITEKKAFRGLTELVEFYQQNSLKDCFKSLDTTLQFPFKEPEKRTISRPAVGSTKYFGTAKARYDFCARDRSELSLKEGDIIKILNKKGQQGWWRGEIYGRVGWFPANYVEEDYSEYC
The conditions noted are these: for remaining activity at 10 µM / percent of DMSO vehicle control at 10 µM: read-out: percent of DMSO vehicle control.

In a further test the target is T2, TNS2 (Homo sapiens, UniProt Q63HR2).
T2 construct: made in house; host or cells: HEK293 (transient transfection), unpurified extract
T2 sequence (Q63HR2 1-1409): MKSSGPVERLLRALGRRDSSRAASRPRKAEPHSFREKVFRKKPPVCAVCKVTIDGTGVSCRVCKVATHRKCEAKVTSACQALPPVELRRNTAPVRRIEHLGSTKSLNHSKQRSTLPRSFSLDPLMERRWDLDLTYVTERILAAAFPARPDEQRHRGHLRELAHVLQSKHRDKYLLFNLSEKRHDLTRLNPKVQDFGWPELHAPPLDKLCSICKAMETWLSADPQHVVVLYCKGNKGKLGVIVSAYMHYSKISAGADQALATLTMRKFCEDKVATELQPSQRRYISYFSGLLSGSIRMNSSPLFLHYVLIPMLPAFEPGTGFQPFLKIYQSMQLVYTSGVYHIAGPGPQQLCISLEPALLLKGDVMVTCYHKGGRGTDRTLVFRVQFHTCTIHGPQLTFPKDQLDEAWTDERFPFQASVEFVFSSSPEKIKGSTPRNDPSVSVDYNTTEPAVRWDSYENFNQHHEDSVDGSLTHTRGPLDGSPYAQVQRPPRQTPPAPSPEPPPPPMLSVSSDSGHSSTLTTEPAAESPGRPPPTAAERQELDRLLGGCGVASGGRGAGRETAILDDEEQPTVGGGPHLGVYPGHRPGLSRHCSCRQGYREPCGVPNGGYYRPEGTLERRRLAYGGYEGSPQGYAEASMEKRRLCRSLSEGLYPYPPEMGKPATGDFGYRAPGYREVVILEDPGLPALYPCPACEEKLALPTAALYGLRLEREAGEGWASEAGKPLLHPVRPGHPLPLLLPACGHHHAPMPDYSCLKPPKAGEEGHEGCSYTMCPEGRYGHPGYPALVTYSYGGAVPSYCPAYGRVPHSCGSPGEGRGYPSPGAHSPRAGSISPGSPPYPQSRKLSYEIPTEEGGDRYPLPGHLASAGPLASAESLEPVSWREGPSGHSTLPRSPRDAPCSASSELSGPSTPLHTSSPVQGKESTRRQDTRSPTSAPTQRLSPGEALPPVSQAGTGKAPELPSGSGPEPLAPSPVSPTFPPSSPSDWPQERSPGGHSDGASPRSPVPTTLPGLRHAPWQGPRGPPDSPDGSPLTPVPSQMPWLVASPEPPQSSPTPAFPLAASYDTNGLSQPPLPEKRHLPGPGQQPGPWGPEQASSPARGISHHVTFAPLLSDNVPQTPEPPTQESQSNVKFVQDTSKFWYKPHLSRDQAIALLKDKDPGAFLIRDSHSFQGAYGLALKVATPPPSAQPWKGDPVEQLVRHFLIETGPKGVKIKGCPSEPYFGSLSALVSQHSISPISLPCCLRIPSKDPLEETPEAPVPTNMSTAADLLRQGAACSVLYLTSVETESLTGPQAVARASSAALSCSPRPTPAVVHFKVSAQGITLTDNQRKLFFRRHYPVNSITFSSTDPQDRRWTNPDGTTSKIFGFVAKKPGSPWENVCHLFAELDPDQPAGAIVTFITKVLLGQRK
The conditions noted are these: for remaining activity at 10 µM: read-out: percent of DMSO vehicle control.

A further test has as its target T3, NCK2 (Homo sapiens, UniProt O43639).
T3 construct: the DNA-tagged SH2 domain concentrations used in this study were <0.1 nM; made in house; host or cells: HEK293 (transient transfection, unpurified extract)
T3 sequence (O43639 285-380 limits assumed): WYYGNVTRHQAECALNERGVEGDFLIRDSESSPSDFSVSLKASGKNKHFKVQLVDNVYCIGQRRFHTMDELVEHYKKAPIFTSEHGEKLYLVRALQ
The conditions noted are these: for remaining activity at 10 µM: read-out: percent of DMSO vehicle control.

The next test addresses T4, GRB10 (Homo sapiens, UniProt Q13322).
T4 construct: the DNA-tagged SH2 domain concentrations used in this study were <0.1 nM; made in house; host or cells: HEK293 (transient transfection; unpurified extract)
T4 sequence (Q13322 493-574 limits assumed): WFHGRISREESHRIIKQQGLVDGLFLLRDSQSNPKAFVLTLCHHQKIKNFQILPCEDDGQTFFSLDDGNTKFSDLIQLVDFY
The settings on record: for remaining activity at 10 µM / percent of DMSO vehicle control at 10 µM: read-out: percent of DMSO vehicle control.

Like-named read-outs stand apart in the source and are kept apart here. Non-standard residues stand in square brackets, D forms with d. Residues, ends and D or L forms follow the SMILES beside them. *: point of attachment. pY = N[C@@H](Cc1ccc(OP(=O)(O)O)cc1)C(=O)O; Caffeoyl = O=C(/C=C/c1ccc(O)c(O)c1)*

On to `C/C(=C\C(=O)N[C@H](C(=O)N1CCC[C@H]1C(=O)N(c1ccccc1)c1ccc(I)cc1)C(C)(C)C)c1ccc(OP(=O)(O)O)cc1` [STAT6-IN-1], for which the remaining activity at 10 µM at VAV1 (primary screen, 10 μM) came to 55.3 ± 2.6%; on TNS2 (primary screen, 10 μM), 55.9 ± 0.4%; at NCK2 (primary screen, 10 μM) it was 66.2 ± 8.2%; on GRB10 (primary screen, 10 μM), 14.6 ± 11%. In addition, on GRB10 (dose-response), the KD entry is “No Hit”.
Consider `CC[C@H](C)[C@H](NC(=O)[C@H](CCC(=O)O)NC(=O)[C@H](CCC(=O)O)NC(=O)[C@H](Cc1ccc(OP(=O)(O)O)cc1)NC(=O)/C=C/c1ccc(O)c(O)c1)C(=O)N[C@@H](CCC(=O)O)C(=O)O` [Caffeic acid-pYEEIE] (Caffeoyl-[pY]EEIE-OH), for which the equilibrium dissociation constant (Kd) on VAV1 was 840 ± 530 nM; at TNS2 it was 4300 ± 2500 nM; at NCK2, 210 ± 59 nM; at GRB10, 480 ± 79 nM. Also, the percent of DMSO vehicle control at 10 µM worked out at 1.6 ± 0.6% on VAV1 and 0.7 ± 0.9% at GRB10. Moreover, the remaining activity at 10 µM on TNS2 was 4.8 ± 1.3%; at NCK2, 2.8 ± 3.1%.
In turn, `CC[C@H](C)[C@H](NC(=O)[C@H](CO)NC(=O)[C@H](CC(C)C)NC(=O)[C@H](CCCNC(=N)N)NC(=O)[C@H](CO)NC(=O)[C@H](CS)NC(C)=O)C(=O)N[C@@H](Cc1ccc(OP(=O)(O)O)cc1)C(=O)N[C@@H](CC(=O)O)C(=O)N[C@@H](CC(N)=O)C(=O)N[C@H](C(=O)N1CCC[C@H]1C(=O)NCC(N)=O)C(C)C` [Ac-CSRLSIpYDNVPG-NH2] (Ac-CSRLSI[pY]DNVPG-NH2) came in with a Kd on TNS2 of 466 ± 450 nM.
Consider `CC(=O)N1CC[C@H]2CC[C@@H](C(=O)N[C@@H](CCC(N)=O)C(=O)NC(c3ccccc3)c3ccccc3)N2C(=O)[C@@H](NC(=O)c2cc3cc(C(F)(F)P(=O)(O)O)ccc3[nH]2)C1` [SI-109], for which the figures for the percent of DMSO vehicle control at 10 µM on VAV1 and on GRB10 were 112% and 122%, respectively. In addition, the remaining activity at 10 µM on TNS2 worked out at 126%; on NCK2, 121%.
As to `O=C(CCl)Nc1cccc(CNC(=O)[C@H](Cc2ccc(OP(=O)(O)O)cc2)NC(=O)Cc2ccc(F)cc2)c1` [MN551], the remaining activity at 10 µM on VAV1 (primary screen, 10 μM) is 109%; on TNS2 (primary screen, 10 μM), 74.1 ± 2.1%; at NCK2 (primary screen, 10 μM) it was 81.5 ± 3%; on GRB10 (primary screen, 10 μM) it was 61.8%.
For the molecule `NC(=O)CC[C@H](NC(=O)[C@@H]1CC[C@@H]2CCN(C(=O)CCCCCC#Cc3cccc4c3CN(C3CCC(=O)NC3=O)C4=O)C[C@H](NC(=O)c3cc4cc(C(F)(F)P(=O)(O)O)ccc4[nH]3)C(=O)N21)C(=O)NC(c1ccccc1)c1ccccc1` (some centres unmarked) [SD-36], the figures for the percent of DMSO vehicle control at 10 µM on VAV1 and at GRB10 were 116 ± 3% and 111 ± 9.2%, respectively. Also, the remaining activity at 10 µM at TNS2 is 65.4 ± 3.3%; at NCK2 it was 80 ± 38.4%.
For the molecule `CC(=O)N[C@@H](Cc1ccc(CP(=O)(O)O)cc1)C(=O)NC1(C(=O)N[C@@H](CC(N)=O)C(=O)NCCCc2c(O)ccc3ccccc23)CCCCC1` [CGP78850], the Kd amounted to 260 nM on VAV1 and 1200 nM on TNS2. For the same molecule, the percent of DMSO vehicle control at 10 µM amounted to 1.8 ± 0.4% at VAV1 and 88.5 ± 13.4% at GRB10. The figures for the remaining activity at 10 µM at TNS2 and on NCK2 were 16% and 111 ± 23.7%, respectively.
Take `CC[C@H](C)[C@H](NC(=O)[C@H](CCC(=O)O)NC(=O)[C@H](CCC(=O)O)NC(=O)[C@H](Cc1ccc(OP(=O)(O)O)cc1)NC(C)=O)C(=O)N[C@@H](CCC(=O)O)C(N)=O` [Ac-pYEEIE-NH2] (Ac-[pY]EEIE-NH2): the “percent of DMSO vehicle control” value at VAV1 (primary screen, 10 μM) is given as 87.2±8.1%; at TNS2 (primary screen, 10 μM) it was 104.0%; on NCK2 (primary screen, 10 μM), 74.9%; on GRB10 (primary screen, 10 μM) it was 155.2%.
Take `O=C(COc1ccc2cc(C(=O)Nc3ccccc3)ccc2c1)NCc1ccc(OP(=O)(O)O)c(OP(=O)(O)O)c1` [Stafib-1]: the remaining activity at 10 µM worked out at 106% on VAV1 (primary screen, 10 μM); 86 ± 8.8% at TNS2 (primary screen, 10 μM); 91.4 ± 35.1% at NCK2 (primary screen, 10 μM); 78.1 ± 12.9% at GRB10 (primary screen, 10 μM).
For `CC(C)(C)[C@H](NC(=O)/C=C/c1ccc(OP(=O)(O)O)cc1)C(=O)N1CCC[C@H]1C(=O)N(c1ccccc1)c1ccc(I)cc1` [STAT6-IN-3], the remaining activity at 10 µM at VAV1 (primary screen, 10 μM) came out at 67.6 ± 32.1%; at TNS2 (primary screen, 10 μM), 86.8 ± 7.1%; on NCK2 (primary screen, 10 μM), 102 ± 68.4%; on GRB10 (primary screen, 10 μM), 58.8 ± 17.6%.
